Where two headings read alike, the source gives them in different places.
Columns and labels:
rNaCh = assay: CVS / cardio tox rNaCh; format: binding, rat; conditions: read-out: Cardio tox rNaCH (IC50)
[1] = test system: Mitochondrial toxicity (Glu/Gal); assay: Mitochondrial toxicity (Glu/Gal) assay; format: cell-based; set-up: key to Score: “negative” means that in the test, it was found to have low mitotoxicity (and hence no mitotoxicity alerts); “positive” means that there were some mitotoxicity alerts; “inconclusive” means that no accurate conclusion could be drawn; conditions: for Score: mitotoxicity score; for Δ IC50,glu/IC50,gal: ratio glu/gal
From the text: The compounds of the invention/examples may have advantages associated with in vitro potency, kill kinetics (i.e. bactericidal effect) in vitro, PK properties, food effect, safety/toxicity (including liver toxicity, coagulation, 5-LO oxygenase), metabolic stability, Ames II negativity, MNT negativity, aqueous based solubility (and ability to formulate) and/or cardiovascular effect e.g. on animals (e.g. anesthetized guinea pig). The data below that was generated/calculated may be obtained using standard methods/assays, for instance that are available in the literature or which may be performed by a supplier (e.g. Microsomal Stability Assay—Cyprotex, Mitochondrial toxicity (Glu/Gal) assay—Cyprotex, as well as literature CYP cocktail inhibition assays).

rCaCh = assay: CVS / cardio tox rCaCh; format: binding, rat
[2] = test system: Mycobacterium tuberculosis (strain H37Ra), cyt bd; conditions: Mtb H37Ra; for (i) % OCR after cyt bd inhibitor: test compound 10 μM added after Compound X 0.9 μM; for (ii) % OCR after cccp: test compound 10 μM after Compound X 0.9 μM, then CCCP 1 μM
[3] = test system: Mycobacterium tuberculosis strain H37Rv ΔctaE-ΔqcrCAB; assay: microbe, parasite or virus in culture; format: cell-based; conditions: 240 h
hERG = hERG (Homo sapiens, UniProt Q12809); assay: CVS / cardio tox hERG (DOF); format: binding; conditions: DOF; read-out: Cardio tox hERG(DOF) (IC50)
Chain of hERG (Q12809 whole entry): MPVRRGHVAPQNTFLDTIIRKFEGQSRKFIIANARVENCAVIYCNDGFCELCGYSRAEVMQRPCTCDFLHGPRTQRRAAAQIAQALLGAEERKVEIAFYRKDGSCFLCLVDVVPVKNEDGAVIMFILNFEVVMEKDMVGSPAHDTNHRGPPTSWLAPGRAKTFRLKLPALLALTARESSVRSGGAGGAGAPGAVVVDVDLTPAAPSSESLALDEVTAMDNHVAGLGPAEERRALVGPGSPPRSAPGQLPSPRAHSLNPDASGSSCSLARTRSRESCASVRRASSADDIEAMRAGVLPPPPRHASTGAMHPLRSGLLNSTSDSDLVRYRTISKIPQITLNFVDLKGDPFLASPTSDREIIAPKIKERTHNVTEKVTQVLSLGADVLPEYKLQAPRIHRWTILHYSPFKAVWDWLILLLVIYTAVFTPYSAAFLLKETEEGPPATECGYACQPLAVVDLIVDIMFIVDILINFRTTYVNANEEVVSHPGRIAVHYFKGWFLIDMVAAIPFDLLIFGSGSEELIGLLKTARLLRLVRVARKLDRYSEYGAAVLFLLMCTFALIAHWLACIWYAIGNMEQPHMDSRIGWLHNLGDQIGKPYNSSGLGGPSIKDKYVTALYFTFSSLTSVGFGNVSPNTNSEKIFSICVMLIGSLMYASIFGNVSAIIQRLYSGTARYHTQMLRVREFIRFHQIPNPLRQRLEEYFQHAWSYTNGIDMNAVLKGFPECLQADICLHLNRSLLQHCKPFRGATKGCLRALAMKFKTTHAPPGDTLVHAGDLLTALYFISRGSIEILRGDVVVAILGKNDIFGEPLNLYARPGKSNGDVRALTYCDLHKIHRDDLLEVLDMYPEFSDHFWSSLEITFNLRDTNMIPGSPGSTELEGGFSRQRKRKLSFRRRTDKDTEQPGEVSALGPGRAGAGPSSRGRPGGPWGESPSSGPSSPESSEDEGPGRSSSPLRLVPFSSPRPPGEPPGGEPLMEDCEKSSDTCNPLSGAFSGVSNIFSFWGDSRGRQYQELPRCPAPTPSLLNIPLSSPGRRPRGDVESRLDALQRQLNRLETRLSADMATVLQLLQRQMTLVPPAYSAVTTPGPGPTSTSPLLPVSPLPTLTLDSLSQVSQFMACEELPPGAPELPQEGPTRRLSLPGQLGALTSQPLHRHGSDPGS

[4] = galactose medium, read-out: IC50, gal
[5] = glucose medium, read-out: IC50, glu

SMILES | IC50 (rNaCh) | IC50 [1, 4] | IC50 [1, 5] | Score [1] | Δ IC50,glu/IC50,gal [1] | Cardio tox rCaCh IC50 (µM) (rCaCh) | (i) % OCR after cyt bd inhibitor [2] | (ii) % OCR after cccp [2] | IC50 [3] | IC50 (hERG)
Cc1c(-c2cn3cc(Cc4ccc(OC(F)(F)F)cc4)ccc3n2)[nH]c2ccccc2c1=O [Compound 63] | 2.8 µM | 96.8 µM | 200 µM | inconclusive | >1.7 | > 3.0 | 85.8% | 157.9% | 76.2 µM | > 10 µM
COc1cc2[nH]c(-c3nc4ccc(-c5ccc(OC(F)(F)F)cc5)cn4n3)c(C)c(=O)c2cc1OC [Compound 70] | > 10 µM | 27.1 µM | 100 µM | inconclusive | [x]3.69 | >10, >10, >10 | 102.2% | 165.65% | > 50 µM | > 10 µM
Cc1c(-c2cc3ccc(-c4ccc(OC(F)(F)F)cc4)cn3n2)[nH]c2ccccc2c1=O [Compound 5] | > 10 µM | 45.9 µM | 106 µM | inconclusive | [x]2.32 | >10, >10, >10 | 43.48% | 49.26% | 1.27 µM | > 10 µM
Cc1c(-c2nc3ccc(-c4cn(CC(F)(F)F)nn4)cn3n2)[nH]c2ccccc2c1=O [Compound 58] | > 10 µM | 100 µM | 100 µM | negative | [x]0 | >10, >10, >10 | 139.74% | 153.33% | > 25 µM | > 10 µM
Cc1c(-c2nc3ccc(-c4ccc(C(F)(F)F)cc4)cn3n2)[nH]c2ccccc2c1=O [Compound 4] | 2.3 µM | 50 µM | 50 µM | negative | [x]0 | > 10 | 32.75% | 40.05% | 1.25 µM | > 10 µM
Cc1c(-c2cn3ccc(Oc4ccc(OC(F)(F)F)cc4)cc3n2)[nH]c2ccccc2c1=O [Compound 29] | 2.3 µM | 53.7 µM | 79.7 µM | negative | 1.5 | 3.3 | 64.6% | 118.5% |  | ~9.1 µM
Cc1c(-c2nc3cc(Br)ccn3n2)[nH]c2ccccc2c1=O [Compound 39] |  | 100 µM | 100 µM | negative | [x]0 |  | 110.6% | 133.8% | > 100 µM | 
Cc1c(-c2nc3ccc(CC(F)(F)F)cn3n2)[nH]c2ccccc2c1=O [Compound 20] |  | 125 µM | 176 µM | negative | [x]1.41 |  | 78.5% | 102.86% | 2.17 µM | 
Cc1c(-c2nc3ccc(-c4ccccc4)cn3n2)[nH]c2ccccc2c1=O [Compound 72] |  | 100 µM | 100 µM | negative | [x]0 |  | 99.84% | 169.69% | 0.261 µM | 
Cc1c(-c2nc3ccc(C(F)(F)F)cn3n2)[nH]c2ccccc2c1=O [Compound 19] | > 10 µM | 100 µM | 100 µM | negative | [x]0 | >10, >10, >10 | 99.4% | 100.5% |  | > 10 µM
Cc1c(-c2nc3cc(-c4cccc(OC(F)(F)F)c4)ccn3n2)[nH]c2ccccc2c1=O [Compound 28] |  | 58.7 µM | 100 µM | negative | [x]1.7 |  | 123.3% | 117.7% | 10 µM | 
COc1ccc2[nH]c(-c3nc4ccc(Br)cn4n3)c(C)c(=O)c2c1 [Compound 68] |  | 100 µM | 100 µM | negative | [x]0 |  | 129.7% | 164.4% | > 100 µM | 
O=c1cc(-c2nc3ccc(-c4ccc(OC(F)(F)F)cc4)cn3n2)[nH]c2ccccc12 [Compound 65] |  | 20 µM | 20 µM | negative | [x]0 |  | 99.86% | 158.97% | > 10 µM | 
Cc1c(-c2nc3ccc(CN4CCC(C(F)(F)F)CC4)cn3n2)[nH]c2ccccc2c1=O [Compound 8] |  | 180 µM | 163 µM | negative | [x]0.91 |  | 82.67% | 59.43% | 3.7 µM | 
COc1cc(F)cc(-c2ccc3nc(-c4[nH]c5ccccc5c(=O)c4C)nn3c2)c1 [Compound 125] |  | 200 µM | 200 µM | negative | [x]0 |  | 45,66% | 64,44% | 0.664 µM | 
COc1cc2nc(-c3[nH]c4ccccc4c(=O)c3C)nn2cc1F [Compound 40] |  | 200 µM | 200 µM | negative | [x]0 |  | 95.33% | 134.33% | > 100 µM | 
Cc1c(-c2nc3ccc(-c4cnc(C(F)(F)F)s4)cn3n2)[nH]c2ccccc2c1=O [Compound 45] |  | 20 µM | 20 µM | negative | [x]0 |  | 94.41% | 138.84% | 5.96 µM | 
Cc1nnc(-c2ccc3nc(-c4[nH]c5ccccc5c(=O)c4C)nn3c2)s1 [Compound 82] |  | 50 µM | 50 µM | negative | [x]0 |  | 96.77% | 186.45% | > 5 µM | 
Cc1c(-c2nc3ccc(-c4cccc(CC(F)(F)F)c4)cn3n2)[nH]c2ccccc2c1=O [Compound 127] |  | 15.8 µM | 18.1 µM | negative | [x]1.14 |  | 49,62% | 65,3% | 3.23 µM | 
